In ChEMBL document CHEMBL1201862, “PubChem BioAssay data set” (2004):
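Test compounds were applied to cells in 96-well plates for 48 hours at 5 doses. Abbreviation: GI50, concentration required for 50% inhibition of growth.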 Active and inactive are the calls of the source. No stated cut-off is given here; in the data, active = GI50 up to about 1.1 µM and inactive = higher.

Legend:
Test in all cases: growth of human tumour cells (NCI), 48 h
[1] = tested on: OVCAR-8
[2] = tested on: KM12
[3] = tested on: MCF7
[4] = tested on: NCI-H460
[5] = tested on: NCI-H522
[6] = tested on: Malme-3M
[7] = tested on: SF-268
[8] = tested on: OVCAR-5
[9] = tested on: DU-145
[10] = tested on: SF-539
[11] = tested on: CAKI-1
[12] = tested on: MDA-MB-231
[13] = tested on: SK-MEL-2
[14] = tested on: SK-MEL-28
[15] = tested on: SF-295
[16] = tested on: K562
[17] = tested on: MOLT-4
[18] = tested on: SNB-19
[19] = tested on: HL-60
[20] = tested on: A549
[21] = tested on: COLO 205
[22] = tested on: OVCAR-3
[23] = tested on: UACC-62
[24] = tested on: RPMI-8226
[25] = tested on: PC-3
[26] = tested on: SK-MEL-5
[27] = tested on: LOX IMVI
[28] = tested on: UO-31
[29] = tested on: NCI-H23
[30] = tested on: UACC-257
[31] = tested on: NCI-H226
[32] = tested on: MDA-MB-435
[33] = tested on: SR
[34] = tested on: Hs-578T
[35] = tested on: NCI/ADR-RES
[36] = tested on: HCC 2998
[37] = tested on: SNB-75
[38] = tested on: CCRF-CEM
[39] = tested on: A498
[40] = tested on: ACHN
[41] = tested on: SK-OV-3
[42] = tested on: TK-10
[43] = tested on: U-251
[44] = tested on: T47D
[45] = tested on: HT-29
[46] = tested on: SN12C
[47] = tested on: HOP-62
[48] = tested on: HCT-116
[49] = tested on: 786-0
[50] = tested on: IGROV-1
[51] = tested on: M14
[52] = tested on: EKVX
[53] = tested on: MDA-N
[54] = tested on: SW-620
[55] = tested on: BT-549
[56] = tested on: OVCAR-4
[57] = tested on: HCT-15
[58] = tested on: HOP-92
[59] = tested on: RXF 393

With `COc1ccc(OC2OC(CO)C(OCc3ccccc3)C(OCc3ccccc3)C2OCc2ccccc2)cc1` (stereo unspecified) the GI50 [1] was > 100 µM (inactive), the GI50 [2] was 72.9 µM (inactive) and the GI50 [3] was 25.9 µM (inactive). The GI50 [4] was 15.8 µM (inactive), the GI50 [5] was 40 µM (inactive) and the GI50 [6] was 39.1 µM (inactive). For the same molecule, the GI50 [7] was 22.3 µM (inactive), the GI50 [8] was > 100 µM (inactive) and the GI50 [9] was > 100 µM (inactive). For the same molecule, the GI50 [10] was 63.2 µM (inactive), the GI50 [11] was > 100 µM (inactive) and the GI50 [12] was > 100 µM (inactive). The GI50 [13] was > 100 µM (inactive), the GI50 [14] was > 100 µM (inactive) and the GI50 [15] was 76.7 µM (inactive). For the same molecule, the GI50 [16] was 6.1 µM (inactive), the GI50 [17] was 2.02 µM (inactive) and the GI50 [18] was > 100 µM (inactive). The GI50 [19] was 88.9 µM (inactive), the GI50 [20] was 11.1 µM (inactive) and the GI50 [21] was 44.4 µM (inactive). The GI50 [22] was > 100 µM (inactive), the GI50 [23] was > 100 µM (inactive) and the GI50 [24] was > 100 µM (inactive). The GI50 [25] was 1.48 µM (inactive), the GI50 [26] was 54.8 µM (inactive) and the GI50 [27] was > 100 µM (inactive). For the same molecule, the GI50 [28] was 41 µM (inactive), the GI50 [29] was 14.4 µM (inactive) and the GI50 [30] was > 100 µM (inactive). For the same molecule, the GI50 [31] was > 100 µM (inactive), the GI50 [32] was > 100 µM (inactive) and the GI50 [33] was 15.5 µM (inactive). For the same molecule, the GI50 [34] was 56.9 µM (inactive), the GI50 [35] was 61.9 µM (inactive) and the GI50 [36] was > 100 µM (inactive). The GI50 [37] was 11.3 µM (inactive), the GI50 [38] was 6.98 µM (inactive) and the GI50 [39] was > 100 µM (inactive). For the same molecule, the GI50 [40] was 31.6 µM (inactive), the GI50 [41] was > 100 µM (inactive) and the GI50 [42] was > 100 µM (inactive). The GI50 [43] was 25.7 µM (inactive), the GI50 [44] was 18.8 µM (inactive) and the GI50 [45] was 9.79 µM (inactive). The GI50 [46] was 17.5 µM (inactive), the GI50 [47] was > 100 µM (inactive) and the GI50 [48] was 14.8 µM (inactive). For the same molecule, the GI50 [49] was 39.5 µM (inactive), the GI50 [50] was > 100 µM (inactive) and the GI50 [51] was > 100 µM (inactive). The GI50 [52] was 11.4 µM (inactive), the GI50 [53] was 76 µM (inactive) and the GI50 [54] was > 100 µM (inactive). The GI50 [55] was > 100 µM (inactive).
`C=C1C(=O)C2(C)OC2(C)C1C(=O)O` (stereo unspecified) was tested, and the GI50 [56] was > 100 µM (inactive), the GI50 [1] was > 100 µM (inactive) and the GI50 [2] was > 100 µM (inactive). The GI50 [3] was > 100 µM (inactive), the GI50 [4] was > 100 µM (inactive) and the GI50 [5] was > 100 µM (inactive). The GI50 [7] was > 100 µM (inactive), the GI50 [8] was > 100 µM (inactive) and the GI50 [9] was > 100 µM (inactive). For the same molecule, the GI50 [10] was > 100 µM (inactive), the GI50 [11] was > 100 µM (inactive) and the GI50 [12] was > 100 µM (inactive). For the same molecule, the GI50 [13] was > 100 µM (inactive), the GI50 [57] was over 100 µM and the GI50 [14] was > 100 µM (inactive). The GI50 [15] was > 100 µM (inactive), the GI50 [16] was > 100 µM (inactive) and the GI50 [58] was > 100 µM (inactive). The GI50 [18] was > 100 µM (inactive), the GI50 [19] was > 100 µM (inactive) and the GI50 [20] was > 100 µM (inactive). For the same molecule, the GI50 [21] was > 100 µM (inactive), the GI50 [22] was > 100 µM (inactive) and the GI50 [23] was > 100 µM (inactive). The GI50 [24] was > 100 µM (inactive), the GI50 [25] was > 100 µM (inactive) and the GI50 [26] was > 100 µM (inactive). The GI50 [27] was > 100 µM (inactive), the GI50 [28] was > 100 µM (inactive) and the GI50 [29] was > 100 µM (inactive). For the same molecule, the GI50 [30] was > 100 µM (inactive), the GI50 [59] was > 100 µM (inactive) and the GI50 [31] was > 100 µM (inactive). For the same molecule, the GI50 [32] was > 100 µM (inactive), the GI50 [33] was > 100 µM (inactive) and the GI50 [34] was > 100 µM (inactive). For the same molecule, the GI50 [35] was > 100 µM (inactive), the GI50 [36] was > 100 µM (inactive) and the GI50 [37] was > 100 µM (inactive). The GI50 [38] was > 100 µM (inactive), the GI50 [40] was > 100 µM (inactive) and the GI50 [41] was > 100 µM (inactive). For the same molecule, the GI50 [42] was > 100 µM (inactive), the GI50 [43] was > 100 µM (inactive) and the GI50 [44] was > 100 µM (inactive). For the same molecule, the GI50 [45] was > 100 µM (inactive), the GI50 [46] was > 100 µM (inactive) and the GI50 [47] was > 100 µM (inactive). The GI50 [48] was > 100 µM (inactive), the GI50 [49] was > 100 µM (inactive) and the GI50 [50] was > 100 µM (inactive). For the same molecule, the GI50 [51] was > 100 µM (inactive), the GI50 [52] was > 100 µM (inactive) and the GI50 [53] was > 100 µM (inactive). The GI50 [54] was > 100 µM (inactive) and the GI50 [55] was > 100 µM (inactive).
